Source: the supplement of paper PMC10949913

Columns and labels:
CU-ACC1 = assay: area under concentration-response curve (viability) (AUC (a.u.)); higher = less active; conditions: 48 h
How it was run: (§1)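 Luminescence from CellTiter-Glo, read after 48 h, measured three adrenocortical carcinoma cell lines treated in 1,536-well plates with library compounds at 11 concentrations. Values were normalised per plate to vehicle and empty-well controls. The AC50 and area under the curve come from fitted concentration-response curves in inhibitory or non-responding classes only.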

CU-ACC2 = assay: as above; conditions: 48 h
How it was run: as §1

| SMILES | area under concentration-response curve (CU-ACC1) | area under concentration-response curve (CU-ACC2) |
| --- | --- | --- |
| CN1CCc2c(c3ccccc3n2Cc2ccc(C(=O)NO)cc2)C1 | 553 | 595 |
| C\C1=C\C(=O)OC2=C1C=CC(=C2)O | 473 | 552 |
| N=C1N[C@H]2[C@H](CS[C@H]2CCCCC(=O)O)N1 | 217 | 256 |
| Cc1c(C(=O)Nc2cccc(C(F)(F)F)c2)cc(-c2ccccc2)n1CCCN1CCOCC1 | 573 | 610 |
| CCCCCCCCCCCCCCCCOCCCO[P](O)(=O)COC(CO)CN1/C=C\C(=N/C1=O)N (stereo not drawn) | 551 | 609 |
| C[C@H]1[C@H](O)[C@@H](C)/C=C/C=C/CC/C=C/C=C/C=C/C=C/[C@H](O[C@@H]2O[C@H](C)[C@@H](O)[C@H](N)[C@@H]2O)C[C@@H]2O[C@](O)(C[C@@H](O)[C@H](O)CC[C@@H](O)C[C@@H](O)C[C@@H](O)CC(=O)O[C@H]1C)C[C@H](O)[C@H]2C(=O)O | 375 | 426 |
| CC(C)=CC[C@@H](O)C/1=C/C(=O)C2=C(O)C=CC(=C2C1=O)O | 568 | 603 |
| CC(C)c1ccc2oc3nc(N)c(C(=O)O)cc3c(=O)c2c1 | 543 | 606 |
| O=C1Nc2ccccc2/C1=C1\Nc2ccccc2C1=O | 557 | 589 |
| CSC[C@H]1CN(Cc2c[nH]c3c(N)ncnc23)C[C@@H]1O | 364 | 417 |
| N#Cc1ccc(NC(=O)Nc2ccccc2Br)c2nn[nH]c12 | 573 | 638 |
| COc1ccnc(C[S+]([O-])c2nc3cc(OC(F)F)ccc3[nH]2)c1OC (stereo not drawn) | 554 | 585 |
| CCc1cc(/C(C)=N/OCc2ccc(C3CCCCC3)c(C(F)(F)F)c2)ccc1CN1CC(C(=O)O)C1 | 462 | 526 |
| Clc1ccc(COC(Cn2ccnc2)c2ccc(Cl)cc2Cl)c(Cl)c1 (stereo not drawn) | 265 | 308 |
| COc1ccc2c(c1)c(CC(=O)O)c(C)n2C(=O)c1ccc(Cl)cc1 | 495 | 566 |
| CN(CCOc1ccc(-c2ccc3c(c2)OCO3)cc1C(C)(C)C)CC(=O)O | 498 | 486 |
| CCC[S+]([O-])c1ccc2[nH]c(NC(=O)OC)nc2c1 (stereo not drawn) | 502 | 595 |
| Cc1[nH]c(=O)c(C#N)cc1-c1ccc2nccn2c1.Cl | 587 | 624 |
| O=C(Oc1ccc([N+](=O)[O-])cc1)N1CCN(Cc2cccc(Oc3ccccc3)c2)CC1 | 531 | 556 |
| CC(C)(C)C1=NC2=C([NH]1)C3=CC=C(F)C=C3C4=C2\C=C/NC4=O | 494 | 500 |

| SMILES | area under concentration-response curve (CU-ACC1) | area under concentration-response curve (CU-ACC2) |
| --- | --- | --- |
| CC(C)(O)CCc1ccc(OCc2cc(-c3cccc(OC(F)F)c3)c3ncccc3c2)cc1 | 543 | 586 |
| O=C1CC(c2c[nH]c3ccc(F)cc23)C(=O)N1 (stereo not drawn) | 465 | 424 |
| COc1ccc2[n-]c([S+]([O-])Cc3ncc(C)c(OC)c3C)nc2c1 (stereo not drawn) | 387 | 398 |
| CCO[C@@H]1OC(=O)C[C@@H]1NC(=O)[C@@H]1CCCN1C(=O)[C@@H](NC(=O)c1ccc(N)c(Cl)c1)C(C)(C)C | 493 | 518 |
| c1ccc2c(Cc3c[nH]c4ccccc34)c[nH]c2c1 | 505 | 574 |
| F\C1=C\NC(=O)NC1=O | 483 | 505 |
| CCCCCCOC(=O)/N=C(/N)c1ccc(NCc2nc3cc(C(=O)N(CCC(=O)OCC)c4ccccn4)ccc3n2C)cc1 | 523 | 594 |
| NC/1=N/C(=O)N(/C=C1)[C@@H]2O[C@H](CO)[C@@H](O)C2(F)F | 497 | 541 |
| COc1cc([C@@H]2c3cc4c(cc3[C@@H](O[C@@H]3O[C@@H]5CO[C@@H](C)O[C@H]5[C@H](O)[C@H]3O)[C@H]3COC(=O)[C@H]23)OCO4)cc(OC)c1O | 492 | 592 |
| CC[C@H](C)C(=O)O[C@H]1C[C@H](O)\C=C2\C=C/[C@H](C)[C@H](CC[C@@H](O)C[C@@H](O)CC(O)=O)[C@@H]12 | 544 | 576 |
| CCN(CC)C(=O)Cc1csc(N[S+](=O)([O-])c2cccc(Cl)c2C)n1 | 415 | 445 |
| Cc1cc(C(=O)Nc2cc(Oc3ccc4nc(NC(=O)C5CC5)cn4n3)ccc2C)n(C)n1 | 511 | 606 |
| CCC(C)(C)c1ccc(CC(C)CN2C[C@@H](C)O[C@@H](C)C2)cc1 (stereo partly drawn) | 462 | 504 |
| COC1=CC2=C(OC\C(=C2\C3=CC=C(F)C=C3)CN4CCCC4)C=C1 | 500 | 560 |
| CCOC(=N)c1nc2ccc3ncnc(Nc4cc(F)c(F)cc4Cl)c3c2s1 | 424 | 653 |
| C=CC(=O)N[C@H]1CN(c2nc(Nc3cn(C)nc3OC)c3ncn(C)c3n2)C[C@@H]1F | 401 | 422 |
| CN[C@H]1CN(C[C@@H]1OC)C2=NC3=C(C=C2)C(=O)C(=C\N3C4=NC=CS4)/C(O)=O | 530 | 632 |
| CC(C)(c1ccc(OCC(O)CO)cc1)c1ccc(OCC(O)CCl)cc1 (stereo not drawn) | 384 | 301 |
| Nc1nnc(-c2cccc(Cl)c2Cl)c(N)n1 | 563 | 630 |
| C[C@H](Nc1nc(N[C@H](C)C(F)(F)F)nc(-c2cccc(Cl)n2)n1)C(F)(F)F | 547 | 606 |

| SMILES | area under concentration-response curve (CU-ACC1) | area under concentration-response curve (CU-ACC2) |
| --- | --- | --- |
| CNNCc1ccc(C(=O)NC(C)C)cc1 | 517 | 526 |
| C[C@H](NC1=NC=NC2=C1[NH]C=N2)\C3=N\C4=C(C=C(F)C=C4)C(=O)N3C5=CC=CC=C5 | 344 | 280 |
| CN1C(=N)N[C@](C)(c2cc(NC(=O)c3ccc(F)cn3)ccc2F)C[S+]1(=O)[O-] | 563 | 611 |
| CN1C(=O)[C@@H](NC(=O)c2cc(Cc3ccccc3)on2)COc2ccccc21 | 361 | 325 |
| CCc1nc(-c2cccc(C)c2)c(-c2ccnc(NC(=O)c3ccccc3)c2)s1 | 490 | 574 |
| OC[C@H]1O[C@@H](O[C@@H]2O\C=C(/[C@H]3C\C=C(CO)/[C@@H]23)C(O)=O)[C@H](O)[C@@H](O)[C@@H]1O | 538 | 594 |
| CCCCCCCCCCCC/1=C(O)/C(=O)/C=C(O)\C1=O | 534 | 593 |
| Cc1cccc(N(C)C(=S)Oc2ccc3ccccc3c2)c1 | 428 | 497 |
| CCN(c1ccccc1)c1cc(NC)[n+](C)c(C)n1 | 574 | 600 |
| c1ccc(-c2nn3c(c2-c2ccnc4cc(OCCN5CCOCC5)ccc24)CCC3)nc1 | 479 | 496 |
| CC(=O)Nc1ccc(OC[C@](C)(O)C(=O)Nc2ccc([N+](=O)[O-])c(C(F)(F)F)c2)cc1 | 519 | 515 |
| CCOC(=O)N[C@@H]1CC[C@@H]2[C@@H](C1)C[C@H]1C(=O)O[C@H](C)[C@H]1[C@H]2/C=C/c1ccc(-c2cccc(F)c2)cn1 | 537 | 511 |
| Cn1cc(-c2ccncc2)c(-c2ccc(OCc3ccc4ccccc4n3)cc2)n1 | 495 | 597 |
| C[C@H](NC(=O)C1=C2N=CC=C[N]2N=C1N)\C3=C\C4=CC=CC(=C4C(=O)N3C5=CC=CC=C5)C#CC6=C[N](C)N=C6 | 511 | 608 |
| NC(=O)c1ccc(I)c([N+](=O)[O-])c1 | 549 | 583 |
| CN(C)CCN(C)CCc1ccc(Cl)c(Cl)c1 | 574 | 581 |
| CC/C(=C(/c1ccc(/C=C/C(=O)O)cc1)c1ccc2[nH]ncc2c1)c1ccc(F)cc1Cl | 501 | 508 |
| CC(=O)Oc1cc2c(s1)CCN(C(C(=O)C1CC1)c1ccccc1F)C2 (stereo not drawn) | 492 | 476 |
| CCc1ccc(N(CC(C)C)[S+](=O)([O-])c2ccc(OCC3CCOCC3)c(CO)c2)cc1 | 466 | 586 |
